Test results reported in US6693100B1, “Pharmaceutical compositions for treating psoriasis” (priority 1999, dated 2004).

Columns and labels:
[1] = human, in vivo
Protocol: (§1) The efficacy and tolerability of dexrazoxane in patients with refractory psoriasis was assessed in a clinical study.
(§2) After screening, eligible patients received 500 mg of Cardioxane® by intravenous infusion on each of two consecutive days. They were reviewed 7 and 14 days after the first day of treatment. The patients received the second cycle of treatment, which consisted of either 500 mg Cardioxane® by intravenous infusion, on each of two consecutive days (days 15 and 16, in this case), if a complete response had occurred, or 1000 mg Cardioxane® by intravenous infusion, on each of two consecutive days (days 15 and 16, in this case), if an incomplete response had occurred.
(§3) A third cycle of treatment was given after the same interval (days 29 and 30, in this case).
This neutropenia disappeared after another week, and the counts were normal from then on. All other patients had normal white blood cell counts. The assessment of toxicity was according to the WHO criteria: grade 0 (non-toxic, a count of more than 4×10E9 leukocytes per liter), grade 1 (mild) to grade 4 (most severe).

refractory psoriasis [2] = assay: Separate longer study of three patients with refractory psoriasis; type: in vivo, human
Description: This patient, who previously suffered distressing refractory psoriasis, can be treated with conventional emollients. Dexrazoxane therefore has the potential to provide remarkable long term relief from refractory psoriasis and a low level of side effects.

psoriasis [3] = assay: Clinical trial case reports: Cardioxane intravenous drip infusion in individual psoriasis patients (Examples 1-3); type: in vivo, human
Description: The disease started after mental stress (loss of near person) with a rash on the hairy part of the head. From the very onset of the disease the patient received intensive treatment with vitamins B12, B6, B2, and calcium. They had artificial hyperthermia with pyrogenal injections, methotrexate, various ointments (e.g. salicylic ointment) under a dermatologist's observation at a specialised clinic. In spite of the treatment the psoriatic rash was spreading over the trunk, upper and lower extremities and it was accompanied by a marked general itch. The patient had practically no remissions. Concurrent diseases were grade II hypertension and chronic cholecystopancreatitis.
At the first examination the patient complained about itching all over the body (resulting in insomnia) and pain in the large joints (mainly knees). The skin on the back, buttocks, chest and arms was covered with a erythematous papular and pustular rash with a white coating (desquamation). A similar though less intense rash was seen on the legs. The patient's general status, the haematological and biochemical profiles were within normal.
On the first and the second day of the treatment cycle the patient received the first doses of Cardioxane® (dexrazoxane.HCl) at 500 mg each day by intravenous drip infusion. […] The itch practically disappeared after the next dose of Cardioxane® therapy at 1000 mg on day 16. […] The patient slept well for the first time in a long disease period. The effect was still preserved at the examination on day 29 and day 30 when the patient was given the last two injections of Cardioxane® at 1500 mg each.
This patient had suffered from generalised psoriasis for 25 years. The rash first appeared on the head and the right upper limb to spread over the trunk and upper limbs later. The patient had received therapies similar to the patient described in Example 1. In addition they received UV therapy, peloids, sulfurated hydrogen baths, but without lasting effect. The patient had no concurrent illness except asthenia, sinus arrhythmia and left ventricular hypertrophy. The skin on the back, lumbar region and shoulders was covered with merged erythematous papular, bullar and desquamating lesions. The rash on the lateral chest walls and on the lower limbs was mainly erythematous and less marked. The skin lesions covered about 50% of the body surface.
The patient was given 6 intravenous drip injections with Cardioxane® according to the following schedule:
On day 1 and day 2 each 500 mg Cardioxane®,
on day 15 and day 16 each 1000 mg Cardioxane®,
and on day 29 and day 30 each 1500 mg Cardioxane®.
The psoriatic rash appeared on the hairy part of the head and neck to spread further over the body. The patient received insolation with but a temporary effect. The patient had had 4 hospitalisations to receive therapy with vitamins, calcium, and various ointments.
At the first examination on day 1 the patient presented with continuous erythematous papular psoriatic rash with desquamation on the front abdominal wall (below the submammal fold), the inguioileac, the lumbosacral, the gluteal regions and the lower limbs, severe itch, and scraping tubular breathing (asthmatic bronchitis). Of note was also a marked increase in the eosinophile count.
The patient received 6 intravenous drip injections of Cardioxane® according to the protocol given in Example 2. […] The lower half of the abdomen as well as the upper gluteal quadrants were practically free of rash.

psoriasis [4] = conditions: cited from earlier work
[5] = pH of reconstituted and diluted Cardioxane solution for infusion; type: physicochemical
Protocol: Cardioxane® is available in 36 ml brown glass vials. Each vial contains 500 mg lyophilised active substance, the hydrochloric acid salt of dexrazoxane. For reconstitution the contents of each vial is dissolved in 25 ml sterile water for injection. The contents will dissolve within a few minutes under gentle agitation. The pH of the resulting solution is approx. pH 1.6.
For infusion the solution needs to be further diluted. Preferred are sodium lactate UP (0.16M) or Ringer-Lactate BP for infusion. Both solutions give an infusion fluid with an acceptable pH.

refractory psoriasis [6] = assay: Clinical study of efficacy of dexrazoxane in patients with refractory psoriasis, Psoriasis Area and Severity Index (Example 4); type: in vivo, human
Protocol: as §1, §2, §3
The primary efficacy parameter was the percentage reduction in skin area and severity affected by psoriasis, as determined by the standardised assessment of the Psoriasis Area and Severity Index (PASI).
Seven patients have been enrolled in the study and all patients have completed a follow-up period of two weeks. At the beginning of the treatment, the PASI-scores ranged between 23.1 and 44.1, with a mean score of 31.9. […] At the end of the third treatment cycle, the PASI-scores ranged between 3.4 and 29.7, with a mean score of 11.4.

[7] = patients of the clinical trial (general statement)
[8] = British Journal of Dermatology (1980) 102, 307
[9] = at 11 weeks after the start of the therapy
[10] = Example 3 patient, examination on day 30

With `CC(CN1CC(=O)NC(=O)C1)N1CC(=O)NC(=O)C1` (stereo not drawn) [dexrazoxane, d-isomer of 1,2-bis(3,5-dioxopiperazin-1-yl)-propane] the serious side effects [1] was “No serious side effects have been reported”, the “duration of relief from refractory psoriasis” value (refractory psoriasis [2]; some patients (summary statement)) was “up to at least one year” and the “long term freedom from lesions and symptoms” value (refractory psoriasis [2]; three patients with refractory psoriasis, after one year) was “one patient is still relatively free of lesions and symptoms after one year”. The itch (psoriasis [3]; [7]) was “diminished several hours after the first administration” and the “regression of the skin lesions” value (psoriasis [3]; [7]) was 25-30%.
In the case of `CC(CN1CC(=O)NC(=O)C1)N1CC(=O)NC(=O)C1` (racemic) [razoxane, 1,2-bis(3,5-dioxopiperazin-1-yl)-propane], the efficacy in psoriasis (psoriasis [4]; [8]) is listed as “relatively good efficacy”, the “tolerability in psoriasis patients” value (psoriasis [4]; [8]) is listed as “good tolerability” and the “most frequently seen side effect” value (psoriasis [4]; Horton and Wells, British Journal of Dermatology (1983) 109, 669-673) is listed as “neutropenia”.
For `CC(CN1CC(=O)NC(=O)C1)N1CC(=O)NC(=O)C1` (stereo not drawn) [Cardioxane], the “pH of the resulting solution” value ([5]; 500 mg vial dissolved in 25 ml sterile water for injection) was about 1.6, the pH ([5]; 4 reconstituted vials diluted with 100 ml Ringer-Lactate BP, total 200 ml) was 2.14 and the pH ([5]; 4 reconstituted vials diluted with 100 ml Sodium lactate UP (0.16 M), total 200 ml) was 3.80. The pH ([5]; 4 reconstituted vials diluted with 300 ml Ringer-Lactate BP, total 400 ml) was 2.85, the pH ([5]; 4 reconstituted vials diluted with 300 ml Sodium lactate UP (0.16 M), total 400 ml) was 4.47 and the pH ([5]; 4 reconstituted vials diluted with 400 ml Ringer-Lactate BP, total 500 ml) was 3.19. The pH ([5]; 4 reconstituted vials diluted with 500 ml Ringer-Lactate BP, total 600 ml) was 3.45, the pH ([5]; 4 reconstituted vials diluted with 500 ml Sodium lactate UP (0.16 M), total 600 ml) was 4.66 and the “maximum reduction in PASI” value (refractory psoriasis [6]; [9]) was 88%. For the same compound, the “mean reduction in PASI” value (refractory psoriasis [6]; [9]) was 65%, the “relief of symptoms associated with psoriatic arthritis” value (refractory psoriasis [6]; compared to treatment with cyclosporine A used previously in the clinic) was “better and faster relief” and the remission (refractory psoriasis [6]; one month after the last injection) was “most of the patients are still in remission”. For the same compound, the PASI score (refractory psoriasis [6]; patient 1/HH, visit v1 (start of treatment)) was 23.1, the PASI score (refractory psoriasis [6]; patient 1/HH, visit v4) was 11.3 and the PASI score (refractory psoriasis [6]; patient 1/HH, visit v7) was 7.7. It also gave a PASI score (refractory psoriasis [6]; patient 1/HH, visit v9) of 6.5, a PASI score (refractory psoriasis [6]; patient 1/HH, visit v10) of 6.5 and a PASI score (refractory psoriasis [6]; patient 1/HH, visit v11) of 5.6. For the same compound, the PASI score (refractory psoriasis [6]; patient 2/MR, visit v1 (start of treatment)) was 43.6, the PASI score (refractory psoriasis [6]; patient 2/MR, visit v4) was 36.3 and the PASI score (refractory psoriasis [6]; patient 2/MR, visit v7) was 23.1. The PASI score (refractory psoriasis [6]; patient 2/MR, visit v9) was 15.6, the PASI score (refractory psoriasis [6]; patient 2/MR, visit v10) was 12.3 and the PASI score (refractory psoriasis [6]; patient 2/MR, visit v11) was 14.0. The PASI score (refractory psoriasis [6]; patient 3/MZ, visit v1 (start of treatment)) was 29.8, the PASI score (refractory psoriasis [6]; patient 3/MZ, visit v4) was 18.4 and the PASI score (refractory psoriasis [6]; patient 3/MZ, visit v7) was 11.6. The PASI score (refractory psoriasis [6]; patient 3/MZ, visit v9) was 9.7, the PASI score (refractory psoriasis [6]; patient 3/MZ, visit v10) was 7.1 and the PASI score (refractory psoriasis [6]; patient 3/MZ, visit v11) was 6.5. The PASI score (refractory psoriasis [6]; patient 4/PH, visit v1 (start of treatment)) was 27.0, the PASI score (refractory psoriasis [6]; patient 4/PH, visit v4) was 18.6 and the PASI score (refractory psoriasis [6]; patient 4/PH, visit v7) was 13.5. For the same compound, the PASI score (refractory psoriasis [6]; patient 4/PH, visit v9) was 10.8, the PASI score (refractory psoriasis [6]; patient 4/PH, visit v10) was 12.0 and the PASI score (refractory psoriasis [6]; patient 4/PH, visit v11) was 5.2. It also gave a PASI score (refractory psoriasis [6]; patient 5/PZ, visit v1 (start of treatment)) of 29.1, a PASI score (refractory psoriasis [6]; patient 5/PZ, visit v4) of 16.9 and a PASI score (refractory psoriasis [6]; patient 5/PZ, visit v7) of 9.9. For the same compound, the PASI score (refractory psoriasis [6]; patient 5/PZ, visit v9) was 9.3, the PASI score (refractory psoriasis [6]; patient 5/PZ, visit v10) was 7.8 and the PASI score (refractory psoriasis [6]; patient 5/PZ, visit v11) was 3.4. For the same compound, the PASI score (refractory psoriasis [6]; patient 6/FJ, visit v1 (start of treatment)) was 44.1, the PASI score (refractory psoriasis [6]; patient 6/FJ, visit v4) was 24.8 and the PASI score (refractory psoriasis [6]; patient 6/FJ, visit v7) was 20.3. It also gave a PASI score (refractory psoriasis [6]; patient 6/FJ, visit v9) of 15.6, a PASI score (refractory psoriasis [6]; patient 6/FJ, visit v10) of 15.6 and a PASI score (refractory psoriasis [6]; patient 6/FJ, visit v11) of 15.3. It also gave a PASI score (refractory psoriasis [6]; patient 7/DJ, visit v1 (start of treatment)) of 26.6, a PASI score (refractory psoriasis [6]; patient 7/DJ, visit v4) of 23.6 and a PASI score (refractory psoriasis [6]; patient 7/DJ, visit v7) of 23.0. For the same compound, the PASI score (refractory psoriasis [6]; patient 7/DJ, visit v9) was 21.8, the PASI score (refractory psoriasis [6]; patient 7/DJ, visit v10) was 28.5 and the PASI score (refractory psoriasis [6]; patient 7/DJ, visit v11) was 29.7. The “mean PASI score at the end of the third treatment cycle” value (refractory psoriasis [6]; seven patients, end of third treatment cycle) was 11.4, the “response to the treatment” value (refractory psoriasis [6]; seven patients, one patient absolutely resistant) was “Most of the patients did respond to the treatment” and the “leukocyte count in the patient with leukopenia” value [1] was “approximately 3×10E9 cells per liter”. The leukopenia incidence [1] was “only one was diagnosed with mild, reversible leukopenia”, the serious adverse events [1] was “no serious adverse events were reported” and the “toxicity grade according to World Health Organisation criteria” value [1] was “grade I”. The “vomiting, nausea, or diarrhoea” value [1] was “No cases of vomiting, nausea, or diarrhoea were recorded”, the arthralgia (psoriasis [3]; Example 1 patient, after 1000 mg dose on day 16) was “complete disappearance of anthralgia” and the adverse events (psoriasis [3]; Example 1 patient, after any of the injections (500, 1000, 1500 mg)) was “no adverse events”. For the same compound, the itch (psoriasis [3]; Example 1 patient, 500 mg i.v. on days 1 and 2) was “amelioration of itch several hours after the first”, the side effects (psoriasis [3]; Example 2 patient, 6 i.v. drip injections 500-1500 mg) was “no side effects” and the erythema (psoriasis [3]; Example 2 patient, examination on day 15 and day 29) was “mild amelioration of erythema on the back”. The skin itch (psoriasis [3]; Example 3 patient, at 2 or 3 days after the first injection) was “complete disappearance of skin itch”, the adverse events (psoriasis [3]; Example 3 patient, examination on day 15) was “no adverse events” and the adverse events (psoriasis [3]; [10]) was “No adverse events were reported”. The “complete regression of the rash” value (psoriasis [3]; [10]) was “about 80%”.
